Measured values published in PubChem BioAssay (NCI).
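Test compounds were applied to cells in 96-well plates for 48 hours at 5 doses. The concentration for full growth arrest is given as TGI.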

How the values were obtained:
Test in all cases: growth of human tumour cells (NCI), 48 h
[1] = tested on: SNB-19 CNS
[2] = tested on: HL-60(TB) leukemia
[3] = tested on: HOP-18 NSCLC
[4] = tested on: IGROV1 ovarian
[5] = tested on: SW-620 colon
[6] = tested on: K-562 leukemia
[7] = tested on: RXF 393 renal
[8] = tested on: MALME-3M melanoma
[9] = tested on: HCC-2998 colon
[10] = tested on: KM20L2 colon
[11] = tested on: M19-MEL melanoma
[12] = tested on: ACHN renal
[13] = tested on: CAKI-1 renal
[14] = tested on: U251 CNS
[15] = tested on: LXFL 529 NSCLC
[16] = tested on: RPMI-8226 leukemia
[17] = tested on: UACC-62 melanoma
[18] = tested on: SNB-78 CNS
[19] = tested on: TK-10 renal
[20] = tested on: NCI-H226 lung
[21] = tested on: OVCAR-5 ovarian
[22] = tested on: EKVX NSCLC
[23] = tested on: HCT-116 colon
[24] = tested on: A498 renal
[25] = tested on: DLD-1 colon
[26] = tested on: UACC-257 melanoma
[27] = tested on: MOLT-4 leukemia
[28] = tested on: XF 498 CNS
[29] = tested on: SF-295 CNS
[30] = tested on: SNB-75 CNS
[31] = tested on: NCI-H460 lung
[32] = tested on: NCI-H522 lung
[33] = tested on: SN12C renal
[34] = tested on: COLO 205 colon
[35] = tested on: SK-MEL-28 melanoma
[36] = tested on: OVCAR-4 ovarian
[37] = tested on: UO-31 renal
[38] = tested on: HCT-15 colon
[39] = tested on: DMS 273 small cell lung
[40] = tested on: LOX IMVI melanoma
[41] = tested on: M14 melanoma
[42] = tested on: OVCAR-3 ovarian
[43] = tested on: SF-268 CNS
[44] = tested on: HOP-62 NSCLC
[45] = tested on: HT29 colon
[46] = tested on: OVCAR-8 ovarian
[47] = tested on: A549 NSCLC
[48] = tested on: KM12 colon
[49] = tested on: HOP-92 NSCLC
[50] = tested on: SK-MEL-2 melanoma
[51] = tested on: NCI-H23 lung
[52] = tested on: SK-OV-3 ovarian
[53] = tested on: DMS 114 small cell lung
[54] = tested on: 786-0 renal
[55] = tested on: CCRF-CEM leukemia
[56] = tested on: RXF-631 renal
[57] = tested on: SK-MEL-5 melanoma
[58] = tested on: SF-539 CNS

For `COc1cc(Nc2cnc3ccc(N)cc3n2)cc(OC)c1OC`, the TGI [1] was > 100 µM, the TGI [2] was > 52.1 µM and the TGI [3] was > 100 µM. The TGI [4] was > 100 µM, the TGI [5] was > 100 µM and the TGI [6] was > 56.6 µM. For the same compound, the TGI [7] was 98.5 µM, the TGI [8] was > 100 µM and the TGI [9] was > 100 µM. For the same compound, the TGI [10] was > 100 µM, the TGI [11] was > 100 µM and the TGI [12] was > 100 µM. The TGI [13] was > 100 µM, the TGI [14] was > 100 µM and the TGI [15] was > 100 µM. The TGI [16] was 42.2 µM, the TGI [17] was > 100 µM and the TGI [18] was > 100 µM. For the same compound, the TGI [19] was > 100 µM, the TGI [20] was > 100 µM and the TGI [21] was > 100 µM. For the same compound, the TGI [22] was > 100 µM, the TGI [23] was > 100 µM and the TGI [24] was > 100 µM. For the same compound, the TGI [25] was > 33.6 µM, the TGI [26] was > 100 µM and the TGI [27] was > 100 µM. The TGI [28] was > 100 µM, the TGI [29] was > 100 µM and the TGI [30] was > 100 µM. The TGI [31] was > 100 µM, the TGI [32] was > 100 µM and the TGI [33] was > 100 µM. The TGI [34] was > 100 µM, the TGI [35] was > 100 µM and the TGI [36] was > 100 µM. For the same compound, the TGI [37] was > 100 µM, the TGI [38] was > 100 µM and the TGI [39] was > 100 µM. The TGI [40] was > 82.8 µM, the TGI [41] was > 100 µM and the TGI [42] was > 86.6 µM. The TGI [43] was > 100 µM, the TGI [44] was 71.1 µM and the TGI [45] was > 100 µM. The TGI [46] was > 100 µM, the TGI [47] was > 100 µM and the TGI [48] was > 100 µM. For the same compound, the TGI [49] was > 100 µM, the TGI [50] was > 100 µM and the TGI [51] was > 100 µM. The TGI [52] was > 100 µM, the TGI [53] was > 100 µM and the TGI [54] was > 100 µM. The TGI [55] was > 56.6 µM, the TGI [56] was > 100 µM and the TGI [57] was > 100 µM.

With `NC(N)=NS(=O)(=O)c1ccc(NC(=O)c2cccc3c(Nc4ccc(S(=O)(=O)N=C(N)N)cc4)c4ccccc4nc23)cc1` the TGI [1] was > 100 µM, the TGI [2] was > 100 µM and the TGI [3] was > 100 µM. For the same compound, the TGI [4] was > 100 µM, the TGI [5] was > 100 µM and the TGI [6] was > 100 µM. For the same compound, the TGI [7] was > 100 µM, the TGI [8] was > 100 µM and the TGI [10] was > 100 µM. For the same compound, the TGI [11] was > 100 µM, the TGI [12] was > 100 µM and the TGI [14] was > 100 µM. The TGI [15] was > 100 µM, the TGI [16] was > 100 µM and the TGI [17] was > 100 µM. For the same compound, the TGI [18] was > 100 µM, the TGI [19] was > 100 µM and the TGI [21] was > 100 µM. For the same compound, the TGI [22] was > 100 µM, the TGI [23] was > 100 µM and the TGI [24] was > 100 µM. The TGI [25] was > 100 µM, the TGI [58] was > 100 µM and the TGI [26] was > 100 µM. For the same compound, the TGI [27] was > 100 µM, the TGI [28] was > 100 µM and the TGI [29] was > 100 µM. For the same compound, the TGI [30] was 81.5 µM, the TGI [31] was > 100 µM and the TGI [32] was > 100 µM. For the same compound, the TGI [33] was > 100 µM, the TGI [34] was > 100 µM and the TGI [35] was > 100 µM. The TGI [36] was > 100 µM, the TGI [37] was > 100 µM and the TGI [38] was > 100 µM. For the same compound, the TGI [39] was > 100 µM, the TGI [40] was > 100 µM and the TGI [41] was > 100 µM. For the same compound, the TGI [42] was > 100 µM, the TGI [43] was > 100 µM and the TGI [44] was > 100 µM. The TGI [45] was > 100 µM, the TGI [46] was > 100 µM and the TGI [47] was > 100 µM. For the same compound, the TGI [48] was > 100 µM, the TGI [49] was > 100 µM and the TGI [50] was > 100 µM. For the same compound, the TGI [51] was > 100 µM, the TGI [52] was > 100 µM and the TGI [53] was > 100 µM. The TGI [54] was > 100 µM, the TGI [55] was > 100 µM and the TGI [56] was > 100 µM. The TGI [57] was > 100 µM.
